Laboratory results: US10335504B2, “Heterocyclic molecules for biomedical imaging and therapeutic applications” (Washington University, priority 2013, dated 2019)
“Also recorded” adds a separate entry of the source.

Experiments:
preformed Aβ1-42 fibrils = molecular target: T1, preformed Aβ1-42 fibrils (Homo sapiens, UniProt P05067); test: Binding assay with preformed Aβ1-42 fibrils/aggregates in PBS (fluorescence); conditions: PBS
T1 construct: preformed Aβ1-42 fibrils
From the text: In some embodiments of the present teachings, binding assays to preformed fibrils or AD brain homogenate extracts can be performed using literature procedures (Klunk, W., et al. Uncharged thioflavin-T derivatives bind to amyloid-beta protein with high affinity and readily enter the brain. Life Sci 69, 1471-1484 (2001); Zhen, W., et al. Synthesis and amyloid binding properties of rhenium complexes: preliminary progress towards a reagent for SPECT imaging of Alzheimer's disease brain. J Med Chem 42, 2805-2815 (1999)). Prior to binding assays, the stock solution (2 μM) can be thawed. To aliquots of this stock solution, ^18F-AI-182 (also exemplified for either ^18F-AI-183 or ^18F-AI-187) can be added at various concentrations to a final concentration of 200 nM Aβ fibrils or 200 μL of AD brain extracts (20-25 μg). The aggregate-bound ^18F-AI-182 (or other analogues) can be collected on Whatman GF filters using Brandon M-24R cell harvester, washed, and counted in a γ-counter (Perkin Elmer). Inhibition constants (Ki) can be calculated as described previously (Han, H., Cho, C. & Lansbury, P. J. Technetium complexes for quantification of brain amyloid. J Am Chem Soc 118, 4506-4508 (1996)). Binding assay results can assist in evaluation of target specificity.
Binding assays of F-AI-182 with preformed Aβ1-42 aggregates were performed in PBS. […] Fluorescence was not observed using Aβ aggregates alone in PBS upon excitation at 410 nm (a negative control). […] Comparative analyses can be performed with other compounds such as AV-45, BAYER 94-9172, and AZD4694. An agent can be interacting with either of the two modestly high affinity binding sites (BS1& BS2) or recognizing an entirely new site on Aβ1-42. F-AI-182 can register different complementary binding sites in relation to Aβ-pathophysiology compared to current agents.

Aβ plaques [1] = test: Staining of human AD brain tissue sections; assay type: binding; conditions: person with AD; 50 nM
Procedure: Staining experiments were performed with human brain tissues. Tissue samples were obtained from the frontal lobe of clinically and neuropathologically well-characterized cases. The neuropathological diagnosis of AD was based on the criteria of the Consortium to Establish a Registry for Alzheimer's Disease (CERAD) (Mirra, S., et al. The Consortium to Establish a Registry for Alzheimer's Disease (CERAD). Part II. Standardization of the neuropathologic assessment of Alzheimer's disease. Neurology 41, 479-486 (1991)) or the National Institute of Aging-Reagan Institute (NIA-RI) (Hyman, B. & Trojanowski, J. Consensus recommendations for the postmortem diagnosis of Alzheimer disease from the National Institute on Aging and the Reagan Institute Working Group on diagnostic criteria for the neuropathological assessment of Alzheimer disease. J Neuropathol Exp Neurol 56, 1095-1097. (1997)). […]
The fluorescent probe (F-AI-183) labels fibrillar amyloid (arrow). The slides were analyzed on a using a Nikon Ti-E PFS inverted microscope equipped with a Nikon 10×0.3 NA Plan APO objective, Prior H117 ProScan flat top linear encoded stage, and Prior Lumen 200PRO illumination system with standard DAPI and FITC filter sets. […] Images were processed and analyzed using the Image J software package (NIH).

Hydrophobicity (log P) = assay type: physicochemical
Aβ plaques [2] = molecular target: T2, Aβ plaques (Homo sapiens, UniProt P05067); test: Ex vivo staining of mouse brain sections; assay type: binding; conditions: 24 months
T2 construct: from tissue; host or cells: brain of APPsw+/-/PS1 (and APPsw+/-) transgenic mice: sections ex vivo, and live animals for multiphoton imaging
T2 sequence (P05067 672-713 limits assumed): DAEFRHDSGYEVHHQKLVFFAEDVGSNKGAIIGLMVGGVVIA
Procedure: FIG. 2 illustrates ex vivo staining studies were performed on brain sections (50 μm) of an APPsw^+/−/PS1 mouse (24 months old) and a control WT mouse (BL/6; 24 months old) using well-established procedures. Briefly, tissue sections were immunostained with mouse monoclonal antibody and visualized by donkey-anti-mouse HJ3.4 Aβ monoclonal antibody-Alexa 568 as a positive control. […] By comparison, no staining in WT mice was seen either with F-AI-182 or the antibody indicating the targeting specificity of F-AI-182. The slides were analyzed on a Zeiss LSM 5 PASCAL confocal system coupled to a Zeiss Axiovert 200 microscope.
The slides were analyzed using a Nikon Ti-E PFS inverted microscope equipped with a Nikon 10x 0.3 NA Plan APO objective, Prior H117 ProScan flat top linear encoded stage, and Prior Lumen 200PRO illumination system with standard DAPI and FITC filter sets. The images were acquired using a Photometrics CoolSNAP HQ2 digital camera and MetaMorph microscopy automaton, and imaging software. Images were processed and analyzed using the Image J software package (NIH).

[3] = test system: Human Pancreatic Cancer Cells (Mia PaCa-2); test: Live cell fluorescence imaging; assay type: cell-based; conditions: 5 μM, 37° C., 30 min
Procedure: (§1) In these experiments, human carcinoma cells were incubated with AI-182
(§2) (5 μM) at 37° C. in the presence of 5% CO2 for 30 min, and examined using a Nikon Ti-E PFS inverted high resolution microscope equipped with a Nikon (Magnification: 20×) Plan APO objective, Prior H117 ProScan flat top linear encoded stage, and Prior Lumen 200PRO illumination system with standard DAPI and FITC filter sets. Top row: Live Cell Imaging of Human Glioblastoma (U87) Cells Using AI-182. Middle row: Live Cell Imaging of Human Pancreatic Cancer Cells (PANC1) Using AI-182. Bottom row: Live Cell Imaging of Human Pancreatic Cancer Cells (Mia PaCa-2) Using AI-182.

[4] = test system: Human Pancreatic Cancer Cells (PANC1); test: Live cell fluorescence imaging; assay type: cell-based; conditions: 5 μM, 37° C., 30 min
Procedure: as §1, §2

[5] = test system: Human Glioblastoma (U87) Cells; test: Live cell fluorescence imaging; assay type: cell-based; conditions: 5 μM, 37° C., 30 min
Procedure: as §1, §2

Aβ plaques [6] = molecular target: T2, Aβ plaques; test: Multiphoton imaging in live APP/PS1 mice; assay type: in vivo, mouse
Procedure: Prior to imaging, dextran-Texas Red was injected for mapping the blood vessels. Following labeling of blood vessels, F-AI-182 (2 mg/kg, dissolved in DMSO/PEG; 20:80) was intravenously injected. A z-stack image series was acquired from cortex surface to a depth of approx. 100 μm using microscope LSM 510META NLO (Carl-Zeiss Inc). […] The labeling of brain parenchymal plaques was visible within 10 min, indicating facile clearance from non-targeted regions and remained labeled for 30 min (FIG. 6). Multi-photon imaging can be done using ^18F-AI-182, other agents, or second generation agents (Bacskai, B., et al. Four-dimensional multiphoton imaging of brain entry, amyloid binding and clearance of an amyloid-3 ligand in transgenic mice. Proc Natl Acad Sci USA 100, 12462-12467 (2003)).

T1 sequence (P05067 672-713 limits assumed): as above

## CN(C)c1ccc(/C=C/c2nc3ccc(OCCF)cc3s2)cn1 [F-AI-182]
Preformed Aβ1-42 fibrils; concentration dependent and saturable binding, read-out: binding constant (Kd) to preformed Aβ1-42 fibrils
  Kd: 59 ± 7 nM
Preformed Aβ1-42 fibrils; excitation 410 nm
  fluorescence of 570 nm peak upon incubation with preformed Aβ(1-42) aggregates: remarkable enhancement in the fluorescence
Aβ plaques [1]
  staining of Aβ plaques in human AD brain sections: detect both diffuse and compact AP plaques; also recorded: stains both fibrillar and diffuse plaques; also recorded: abundant staining of Aβ plaques
Hydrophobicity (log P)
  logP: 1.2
Aβ plaques [2]; APPsw+/−/PS1 mice, 100 nM, 60 min
  staining of plaques in hippocampus and cortical region of brain sections: staining of both fibrillar and diffuse plaques; also recorded: stains both fibrillar and diffuse plaques; also recorded: abundant staining of fibrillar and diffuse plaques
Aβ plaques [2]; WT BL/6 mouse
  staining of brain sections of WT mice: no staining
[3]
  probe uptake in cells (fluorescence): accumulation of the probe within cells
[4]
  probe uptake in cells (fluorescence): accumulation of the probe within cells
[5]
  probe uptake in cells (fluorescence): accumulation of the probe within cells
Aβ plaques [6]; live APP/PS1 mice
  time at which labeling of brain parenchymal plaques was visible: ≤ 10 min
  time plaques remained labeled: 30 min
Aβ plaques [6]; live APPsw+/−/PS1 mice, 2 mg/kg i.v., 2 mg/kg
  labeling of plaques in vivo by multi-photon microscopy: label plaques in brain parenchyma and blood vessels (CAA)
